{"source": "paper PMC9516332", "about": "(Frontiers in Oncology, 2022)", "test_system": "134 cancer cell lines", "assay": "Cell viability assay (ATPlite, 72 hours), IC50 on cancer cell line panel", "note": "Read-outs that look alike come from different tables or passages of the source."}
{"smiles": "C=CC(=O)N1CCC([C@@H]2CCNc3c(C(N)=O)c(-c4ccc(Oc5ccccc5)cc4)nn32)CC1", "note": "[zanubrutinib]", "values": [{"measurement": "IC50", "setting": "HEC-6, read-out: IC50 in cell proliferation assay", "value": 0.355, "unit": "µM"}, {"measurement": "IC50", "setting": "Homo sapiens, 769-P, read-out: IC50 in cell proliferation assay", "value": 4.48, "unit": "µM"}, {"measurement": "IC50", "setting": "Homo sapiens, 786-0, read-out: IC50 in cell proliferation assay", "value": 2.19, "unit": "µM"}, {"measurement": "IC50", "setting": "Homo sapiens, A 172, read-out: IC50 in cell proliferation assay", "value": "> 31.6", "unit": "µM"}, {"measurement": "IC50", "setting": "Homo sapiens, A204, read-out: IC50 in cell proliferation assay", "value": 27.9, "unit": "µM"}, {"measurement": "IC50", "setting": "Homo sapiens, A498, read-out: IC50 in cell proliferation assay", "value": 5.51, "unit": "µM"}, {"measurement": "IC50", "setting": "Homo sapiens, A549, read-out: IC50 in cell proliferation assay", "value": 24.7, "unit": "µM"}, {"measurement": "IC50", "setting": "Homo sapiens, A704, read-out: IC50 in cell proliferation assay", "value": "> 31.6", "unit": "µM"}, {"measurement": "IC50", "setting": "Homo sapiens, A-375, read-out: IC50 in cell proliferation assay", "value": "> 31.6", "unit": "µM"}, {"measurement": "IC50", "setting": "Homo sapiens, A-427, read-out: IC50 in cell proliferation assay", "value": 8.55, "unit": "µM"}, {"measurement": "IC50", "setting": "Homo sapiens, ACHN, read-out: IC50 in cell proliferation assay", "value": 2.75, "unit": "µM"}, {"measurement": "IC50", "setting": "Homo sapiens, AN3-CA, read-out: IC50 in cell proliferation assay", "value": 29.8, "unit": "µM"}, {"measurement": "IC50", "setting": "Homo sapiens, ASPC1, read-out: IC50 in cell proliferation assay", "value": 7.83, "unit": "µM"}, {"measurement": "IC50", "setting": "Homo sapiens, AU565, read-out: IC50 in cell proliferation assay", "value": 0.303, "unit": "µM"}, {"measurement": "IC50", "setting": "Homo sapiens, BT-20, read-out: IC50 in cell proliferation assay", "value": 15.1, "unit": "µM"}, {"measurement": "IC50", "setting": "Homo sapiens, BT-474, read-out: IC50 in cell proliferation assay", "value": 0.213, "unit": "µM"}, {"measurement": "IC50", "setting": "Homo sapiens, BT-549, read-out: IC50 in cell proliferation assay", "value": 12, "unit": "µM"}, {"measurement": "IC50", "setting": "Homo sapiens, BXPC-3, read-out: IC50 in cell proliferation assay", "value": 3.04, "unit": "µM"}, {"measurement": "IC50", "setting": "Homo sapiens, C-33-A, read-out: IC50 in cell proliferation assay", "value": 1.1, "unit": "µM"}, {"measurement": "IC50", "setting": "Homo sapiens, CAL-27, read-out: IC50 in cell proliferation assay", "value": 1.37, "unit": "µM"}, {"measurement": "IC50", "setting": "Homo sapiens, CCF-STTG1, read-out: IC50 in cell proliferation assay", "value": "> 31.6", "unit": "µM"}, {"measurement": "IC50", "setting": "Homo sapiens, CCRF-CEM, read-out: IC50 in cell proliferation assay", "value": 13.2, "unit": "µM"}, {"measurement": "IC50", "setting": "Homo sapiens, COLO 205, read-out: IC50 in cell proliferation assay", "value": "> 31.6", "unit": "µM"}, {"measurement": "IC50", "setting": "Homo sapiens, COLO-829, read-out: IC50 in cell proliferation assay", "value": "> 31.6", "unit": "µM"}, {"measurement": "IC50", "setting": "Homo sapiens, DLD-1, read-out: IC50 in cell proliferation assay", "value": "> 31.6", "unit": "µM"}, {"measurement": "IC50", "setting": "Homo sapiens, DU-145, read-out: IC50 in cell proliferation assay", "value": 1.05, "unit": "µM"}, {"measurement": "IC50", "setting": "Homo sapiens, DU-4475, read-out: IC50 in cell proliferation assay", "value": 18.1, "unit": "µM"}, {"measurement": "IC50", "setting": "Homo sapiens, Daoy, read-out: IC50 in cell proliferation assay", "value": 23.4, "unit": "µM"}, {"measurement": "IC50", "setting": "Homo sapiens, DoTc2-4510, read-out: IC50 in cell proliferation assay", "value": 1.5, "unit": "µM"}, {"measurement": "IC50", "setting": "Homo sapiens, EOL1, read-out: IC50 in cell proliferation assay", "value": 2.74, "unit": "µM"}, {"measurement": "IC50", "setting": "Homo sapiens, FaDu, read-out: IC50 in cell proliferation assay", "value": 0.751, "unit": "µM"}, {"measurement": "IC50", "setting": "Homo sapiens, G-361, read-out: IC50 in cell proliferation assay", "value": 31.4, "unit": "µM"}, {"measurement": "IC50", "setting": "Homo sapiens, HCC827, read-out: IC50 in cell proliferation assay", "value": 1.33, "unit": "µM"}, {"measurement": "IC50", "setting": "Homo sapiens, HCC4006, read-out: IC50 in cell proliferation assay", "value": 1.36, "unit": "µM"}, {"measurement": "IC50", "setting": "Homo sapiens, HCT-15, read-out: IC50 in cell proliferation assay", "value": 15.7, "unit": "µM"}, {"measurement": "IC50", "setting": "Homo sapiens, HCT-116, read-out: IC50 in cell proliferation assay", "value": "> 31.6", "unit": "µM"}, {"measurement": "IC50", "setting": "Homo sapiens, HEC-1, read-out: IC50 in cell proliferation assay", "value": "> 31.6", "unit": "µM"}, {"measurement": "IC50", "setting": "Homo sapiens, HEC-1B, read-out: IC50 in cell proliferation assay", "value": 5.59, "unit": "µM"}, {"measurement": "IC50", "setting": "Homo sapiens, HL-60, read-out: IC50 in cell proliferation assay", "value": "> 31.6", "unit": "µM"}, {"measurement": "IC50", "setting": "Homo sapiens, HT, read-out: IC50 in cell proliferation assay", "value": "> 31.6", "unit": "µM"}, {"measurement": "IC50", "setting": "Homo sapiens, HT-1080, read-out: IC50 in cell proliferation assay", "value": "> 31.6", "unit": "µM"}, {"measurement": "IC50", "setting": "Homo sapiens, Hs746T, read-out: IC50 in cell proliferation assay", "value": "> 31.6", "unit": "µM"}, {"measurement": "IC50", "setting": "Homo sapiens, Hs-578T, read-out: IC50 in cell proliferation assay", "value": 28.4, "unit": "µM"}, {"measurement": "IC50", "setting": "Homo sapiens, HuTu80, read-out: IC50 in cell proliferation assay", "value": 0.961, "unit": "µM"}, {"measurement": "IC50", "setting": "Homo sapiens, J82, read-out: IC50 in cell proliferation assay", "value": "> 31.6", "unit": "µM"}, {"measurement": "IC50", "setting": "Homo sapiens, Jurkat E6.1, read-out: IC50 in cell proliferation assay", "value": 19.1, "unit": "µM"}, {"measurement": "IC50", "setting": "Homo sapiens, K562, read-out: IC50 in cell proliferation assay", "value": "> 31.6", "unit": "µM"}, {"measurement": "IC50", "setting": "Homo sapiens, KATO III, read-out: IC50 in cell proliferation assay", "value": 5.47, "unit": "µM"}, {"measurement": "IC50", "setting": "Homo sapiens, KG-1, read-out: IC50 in cell proliferation assay", "value": 2.85, "unit": "µM"}, {"measurement": "IC50", "setting": "Homo sapiens, KLE, read-out: IC50 in cell proliferation assay", "value": 2.73, "unit": "µM"}, {"measurement": "IC50", "setting": "Homo sapiens, KMS-11, read-out: IC50 in cell proliferation assay", "value": 22.6, "unit": "µM"}, {"measurement": "IC50", "setting": "Homo sapiens, KU812, read-out: IC50 in cell proliferation assay", "value": 12.3, "unit": "µM"}, {"measurement": "IC50", "setting": "Homo sapiens, Kasumi 1, read-out: IC50 in cell proliferation assay", "value": 3.36, "unit": "µM"}, {"measurement": "IC50", "setting": "Homo sapiens, LC-2-ad, read-out: IC50 in cell proliferation assay", "value": 16.5, "unit": "µM"}, {"measurement": "IC50", "setting": "Homo sapiens, LNCaP-Clone-FGC, read-out: IC50 in cell proliferation assay", "value": 13.7, "unit": "µM"}, {"measurement": "IC50", "setting": "Homo sapiens, LS174T, read-out: IC50 in cell proliferation assay", "value": 11.5, "unit": "µM"}, {"measurement": "IC50", "setting": "Homo sapiens, LS-411N, read-out: IC50 in cell proliferation assay", "value": 12.4, "unit": "µM"}, {"measurement": "IC50", "setting": "Homo sapiens, LoVo, read-out: IC50 in cell proliferation assay", "value": 24.9, "unit": "µM"}]}
